Experimental data as given in patent EP0614464B1, “PEPTIDES AND ANTIBODIES FOR TREATMENT OF RHEUMATOID ARTHRITIS” (PEPTIDE THERAPEUTICS LIMITED, priority 1991, dated 1993).
Ends that are not written are not given here. Peptide text beside a SMILES is read from it.

Experiments:
IgA-α1AT complex = assay: HPLC analysis of in vitro dissociation of purified IgA-α1AT complex; format: biochemical, human; conditions: for HPLC minimum: Table 5, minimum concentration giving complex : free IgA ratio at 20% (base-line 14%), >500µM = no complex dissociation at highest concentration tested; for HPLC %: Table 1
Procedure: The ability of the peptides of the invention to dissociate purified IgA-α1AT complex in vitro was tested as described below. The anti-rheumatic drug D-penicillamine and other synthetic peptides were used as controls. […] The sample was monitored at wavelength 206nm at a flow rate of 1ml/minute with phosphate buffer (0.1M) pH 7.1. […] They represent the ability of the peptides to dissociate the IgA-α1AT complex in vitro. In these experiments, the base-lines level comprises a complex : free IgA ratio of 14% . The minimum concentration of peptide taken to produce a positive dissociation effect is that which results in a complex: free IgA ratio at 20%. In the results tables, all the peptide values are expressed in µMoles.

[1] = test system: alternative complement (C3) pathway; assay: Inhibition of C3-activation: preventing IgA-α1AT complex from activating the alternative complement pathway, rabbit erythrocyte haemolysis read-out; format: biochemical, human
Procedure: Various peptides were tested for their ability to prevent the IgA-α1AT complex from activating the alternative complement (C3) pathway.
The method of measuring the capacity to activate the alternative complement pathway by the non-immune IgA-α1AT complex and the subsequent inhibition of this activation by anti-rheumatic peptides is described below.
This method was based on the method described by Riches and Stanworth, Immunology Letters, 1980, 1, 363,366, with modification to miniaturise it thus allowing the assay to be carried out on microtitre plates.
The initial observation by Platts-Mills and Ishizaka (J Immunol. (1974) 113, 348,358) that low dilutions of fresh normal human serum, from which calcium had been removed by chelation with 10mM EGTA to block the classical complement pathway, caused greater than 90% haemolysis of unsensitised rabbit erythrocytes when incubated at 37°C was employed in this assay.
The non-immune complex IgA-α1AT had been shown in the past to be the only known soluble complex to activate the alternative pathway complement and […] of the rabbit erythrocytes. This inhibition required biologically active complex.
The buffers solutions required in this assay were (a) Total lysis buffer (1% Triton100 in ultra pure water), (b) Alternative pathway complement fixation diluent (APCFD) which was:- • 83 volumes CFD, DH 7.2 (1 oxoid tablet: 100ml UPW) • 10 volumes 0.1M EGTA pH 7.2 • 7 volumes MgCl2 pH 7.2
Blood was obtained by venipuncture from a healthy human individual. The blood was allowed to clot for 1 hour at room temperature and then stored overnight at 4°C. The serum was removed and stored at -70°C in lml aliquots. For use, the serum was defrosted and 100µl of 0.1m EGTA pH 7.2 and 70µl O.lm MgCl2 pH 7.2 was added.
Rabbit red blood cells (RBC) were obtained by venipuncture of a healthy rabbit and collected into 0.1M citrate buffer pH 6.2. The RBC were washed 3 times in citrate buffer and the cells were stored in this buffer which was changed every week. It was possible to store cells in this way for 3 weeks. Peptides
The peptides were synthesised as described in Example 1 and made up in UPW to lmM. They were kept frozen at -70°C prior to use.
This was prepared as previously described in Example 2. It was kept frozen in small aliquots prior to use.
Using a round bottomed welled flexible microtitre plate 100µl neat serum (with added EGTA and MgCl2) was added to the first wells in duplicate. This was double diluted out, with APCFD to give a volume of 50µl well. 8 test wells (+ duplicates) were sufficient. 8 wells were prepared as a positive control - (100µl 1% Triton/UPW). 8 wells were prepared as a negative control - (100µl APCFD (Blank)).
50µl of APCFD was added to the test wells and 50µl of 1% rabbit RBC was added to all wells. The plate was then incubated at 37°C for 30 minutes and then centrifuged for 10 minutes at 2000 rpm.
75µl of the supernatant was carefully removed and plated onto a flat bottom welled microtitre plate. The plates were then read at 410nm interference, 690nm reference. The zero or blank value was calculated as the mean value of negative control wells and using the mean of the positive control wells, the percentage lysis for serum dilutions was calculated. In future assays the serum dilution in which lysis was approx. 80% of Rb RBC was used. This was usually in the range 1:4 - 1:6 dilution (ie. lml serum : 4ml APCFD - 6ml APCFD).
A 1:1 dilution of IgA-α1AT complex was made with twice concentrated APCFD. 100µl of this 1:1 dilution of complex was added to the first wells in duplicate. This was double diluted out with APCFD to give 50 µl per well. 50µl of the predetermined dilution of serum (see (i) above) was added to each well. Positive and negative control wells as described in (a) above and wells containing serum alone were used as controls. The plates were incubated at 37°C for 30 minutes and then centrifuged at 2000 rpm for 1 minute. […]

[2] = test system: mouse macrophage cell line (PU 518); assay: Macrophage inhibition assay: IgA-α1AT complex-stimulated release of lysosomal enzymes; format: cell-based; conditions: concentration needed to prevent 50% release of β-glucoromidase
Procedure: A mouse macrophage cell line (PU 518) was stimulated to release lysosomal enzymes by the addition of purified human IgA-α1AT complex. The degree to which this release was then inhibited by the peptides or other drugs was investigated, with the degree of inhibition being indicative of activity; the concentration of peptide or other test drugs giving 50% inhibition being recorded. Briefly the method was as follows:
25µl of peptide or drug was double diluted in […] + 10% foetal calf serum (FCS) in a sterile tissue culture 96 well plate. 25µl of IgA-α1AT complex in RPMI 1640 +10% FCS at about 0.2mg/ml was then added to all wells. 50µl of cells at a concentration of 2 x 10^6 cells/ml in RPMI 1640 + 10% FCS was then added to each well.
Control wells of cells alone and cells + IgA-α1AT complex were also prepared. The plate was then gently mixed and incubated overnight (16hr) at 37°C in a 4% CO2 atmosphere. Plates were then centrifuged at 1200 rpm for 10 minutes in a bench top centrifuge.
40µl of supernatant was then taken from each well and added to a 96 well polystyrene assay plate, to which was added 40µl of 160mM acetate buffer (pH 4.3) containing 2mM phenolphthalein-β-D-glucuronic acid. To obtain a standard curve, dilutions of phenolphthalein in acetate buffer from 100-5µg/ml were also added to separate wells in the assay plate.
The plates were then incubated at 37°C for 4 hours before 150µl of 0.2M glycine/NaOH buffer (pH 10.6) containing 0.2M NaCl was added to stop the reaction.
Plates were then shaken for 3 minutes before the optical density at 570nm was read on a plate reader, and the amount of β-D-glucuronic acid released from the cells calculated. The concentration of peptide or drug giving 50% inhibition of release was then noted.
The results for the macrophage inhibition assays are expressed as the concentration needed to prevent 50% release of β-glucoromidase.

[3] = minimum peptide concentration giving complex : free IgA ratio at 20% (base-line 14%), 90 minutes at 37°C
[4] = Table 1, minimum concentration of peptide needed to prevent C3 activation
[5] = Table 3, minimum peptide concentration giving complex : free IgA ratio at 20% (base-line 14%), 90 minutes at 37°C
[6] = Table 3, minimum concentration of peptide needed to prevent C3 activation
[7] = Table 4, minimum peptide concentration giving complex : free IgA ratio at 20% (base-line 14%), 90 minutes at 37°C
[8] = Table 4, minimum concentration of peptide needed to prevent C3 activation
[9] = Table 5, minimum concentration needed to prevent C3 activation

Compound: NCCCC[C@H](NC(=O)[C@H](CCCCN)NC(=O)[C@@H](N)CS)C(N)=O [Peptide 114, CKKnh2] (H-Cys-Lys-Lys-NH2)
- HPLC% minimum (IgA-α1AT complex; Table 2, minimum peptide concentration giving complex : free IgA ratio at 20% (base-line 14%), 90 minutes at 37°C): 125 µM
- C' minimum ([1]; Table 2, minimum concentration of peptide needed to prevent C3 activation): >1250 µM

Compound: NCCCC[C@H](NC(=O)[C@@H](N)CS)C(N)=O [Peptide 115, CKnh2, reference compound] (H-Cys-Lys-NH2)
- HPLC minimum (IgA-α1AT complex; 90 minutes at 37°C): 500 µM
- activity (IgA-α1AT complex; comment in words on Tables 3-5, assay not given, fits the HPLC values): substantially less active

Compound: NCCCC[C@H](NC(=O)[C@H](CCCCN)NC(=O)[C@H](CS)NC(=O)[C@@H](N)Cc1c[nH]cn1)C(N)=O [Peptide 132, HCKKnh2] (H-HCKK-NH2)
- HPLC % (IgA-α1AT complex; [3]): 10 µM
- IC50 ([2]; Table 1, 16hr incubation): 60 µM
- C' [1, 4]: 16 µM

Compound: C[C@@H](N)C(=O)N[C@@H](Cc1c[nH]cn1)C(=O)N[C@@H](CS)C(=O)N[C@@H](CCCCN)C(=O)N[C@@H](CCCCN)C(N)=O [Peptide 205, dAHCKKnh2] (HELM PEPTIDE1{[dA].H.C.K.K.[am]}$$$$V2.0)
- HPLC (IgA-α1AT complex; [5]): 10 µM
- C' [1, 6]: 1.95 µM

Compound: C[C@@H](NC(=O)[C@H](CCCCN)NC(=O)[C@H](CCCCN)NC(=O)[C@H](CS)NC(=O)[C@@H](N)Cc1c[nH]cn1)C(N)=O [Peptide 206, HCKKdAnh2] (HELM PEPTIDE1{H.C.K.K.[dA].[am]}$$$$V2.0)
- HPLC (IgA-α1AT complex; [7]): 50 µM
- C' [1, 8]: 31.3 µM

Compound: C[C@@H](N)C(=O)N[C@@H](Cc1c[nH]cn1)C(=O)N[C@@H](CS)C(=O)N[C@@H](CCCCN)C(=O)N[C@@H](CCCCN)C(=O)N[C@H](C)C(N)=O [Peptide 210, dAHCKKdAnh2, reference compound] (HELM PEPTIDE1{[dA].H.C.K.K.[dA].[am]}$$$$V2.0)
- HPLC minimum (IgA-α1AT complex; 90 minutes at 37°C): 10 µM
- C' minimum [1, 9]: 3.9 µM

Compound: DGGHCKK-NH2 [Peptide 118, DGGHCKKnh2]
- HPLC (IgA-α1AT complex; [5]): 50 µM

Compound: DGHCKK-NH2 [Peptide 119, DGHCKKnh2]
- HPLC (IgA-α1AT complex; [5]): 10 µM

Compound: DHCKK-NH2 [Peptide 113, DHCKKnh2]
- HPLC (IgA-α1AT complex; [5]): 10 µM
- IC50 ([2]; Table 3, 16hr incubation): 70 µM
- C' [1, 6]: 78 µM

Compound: EGHCKK-NH2 [Peptide 155, EGHCKKnh2]
- HPLC (IgA-α1AT complex; [5]): 5 µM
- IC50 ([2]; Table 3, 16hr incubation): 60 µM
- C' [1, 6]: <2 µM

Compound: EHCKK-NH2 [Peptide 154, EHCKKnh2]
- HPLC (IgA-α1AT complex; [5]): 5 µM
- C' [1, 6]: <2 µM

Compound: HCCGKnh2 [Peptide 147, reference compound]
- HPLC minimum (IgA-α1AT complex; 90 minutes at 37°C): 10 µM
- IC50 ([2]; Table 5, head prints no unit, b70 says all values of the results tables are in µMoles): 250 µM
- C' minimum [1, 9]: 32 µM

Compound: HCKKD-NH2 [Peptide 120, HCKKDnh2]
- HPLC (IgA-α1AT complex; [7]): 50 µM
- IC50 ([2]; Table 4, 16hr incubation): 25 µM
- C' [1, 8]: 62 µM

Compound: HCKKE-NH2 [Peptide 150, HCKKEnh2]
- HPLC (IgA-α1AT complex; [7]): 50 µM
- C' [1, 8]: 8 µM

Compound: HCKKGD-NH2 [Peptide 121, HCKKGDnh2]
- HPLC (IgA-α1AT complex; [7]): 125 µM
- C' [1, 8]: 62 µM

Compound: HCKKGE-NH2 [Peptide 151, HCKKGEnh2]
- HPLC (IgA-α1AT complex; [7]): 50 µM
- C' [1, 8]: 16 µM

Compound: HCKKGGD-NH2 [Peptide 122, HCKKGGDnh2]
- HPLC (IgA-α1AT complex; [7]): 50 µM
- C' [1, 8]: 31 µM

Compound: HCKKGGE-NH2 [Peptide 152, HCKKGGEnh2]
- HPLC (IgA-α1AT complex; [7]): 10 µM
- C' [1, 8]: 125 µM

Compound: HDCKK-NH2 [Peptide 198, HDCKKnh2]
- HPLC % (IgA-α1AT complex; [3]): 10 µM
- C' [1, 4]: 3.9 µM

Compound: HECKK-NH2 [Peptide 204, HECKKnh2]
- HPLC % (IgA-α1AT complex; [3]): 10 µM
- C' [1, 4]: <1.95 µM

Compound: HFCKK-NH2 [Peptide 208, HFCKKnh2]
- HPLC % (IgA-α1AT complex; [3]): 10 µM
- C' [1, 4]: 3.9 µM

Compound: HFCKK-NH2 [Peptide 209, HFCKKnh2]
- C' [1, 4]: 3.9 µM

Compound: HPCKK-NH2 [Peptide 201, HPCKKnh2]
- HPLC % (IgA-α1AT complex; [3]): 10 µM
- C' [1, 4]: 3.9 µM

Compound: HYCKK-NH2 [Peptide 199, HYCKKnh2]
- HPLC % (IgA-α1AT complex; [3]): 10 µM
- C' [1, 4]: 3.9 µM

Compound: IQHCKK-NH2 [Peptide 134, IQHCKKnh2]
- HPLC (IgA-α1AT complex; [5]): 10 µM
- C' [1, 6]: 62 µM

Compound: IVLVDNKCKCAR [Peptide 89, reference compound]
- HPLC minimum (IgA-α1AT complex; 90 minutes at 37°C): 50 µM
- C' minimum [1, 9]: 125 µM

Compound: NIQHCKK-NH2 [Peptide 135, NIQHCKKnh2]
- HPLC (IgA-α1AT complex; [5]): 10 µM
- C' [1, 6]: 31 µM

Compound: QHCKK-NH2 [Peptide 133, QHCKKnh2]
- HPLC (IgA-α1AT complex; [5]): 10 µM
- C' [1, 6]: 31 µM
